Experimental data from US8685981B2, “Cyclic compound having hetero atom” (Daiichi Sankyo Company, Limited, priority 2009, dated 2014).

Experiments:
[1] = test system: ST2 cells, murine bone marrow-derived stromal cells; assay: Osteoblast differentiation test (alkaline phosphatase activity); assay type: cell-based; conditions: Mus musculus, ST-2, 96 h, at 0.03 μg/mL, four days of culturing, control group (0.1% DMSO) set at 100%, read-out: increase (%) in alkaline phosphatase activity
Experimental: ST2 cells, murine bone marrow-derived stromal cells, (obtained from RIKEN) were used.
In this test, α-MEM media (obtained from GIBCO BRL Cat. No. 10370-021) containing 10% (v/v) of inactivated calf serum (obtained from Hyclone Laboratories, Inc.) and 1% (v/v) of Penicillin-Streptomycin Liquid (obtained from GIBCO BRL Cat. No. 15140-122) (hereinbelow, abbreviated as 10%-FBS-αMEM) were used. In this test, all culturing was performed in a CO2 incubator (37° C., 95% humidity, 5% CO2).
The aforementioned cells were detached with 2 mL of a 0.25% trypsin solution (obtained from GIBCO BRL Cat. No. 15050-065) and dispersed in 10 mL of 10%-FBS-αMEM. Subsequently, the cells were collected by centrifugation (25° C., 800 rpm, five minutes). Then, a cell suspension containing 40000 of the cells/mL of 10%-FBS-αMEM was prepared. The cell suspension was then dispensed into 96-well plates (the product of Falcon), 100 μL per well, at a density of 4000 cells/well, followed by culturing for 24 hours. To the wells except for the below-described well containing a control group, the compound was dispensed at final concentrations of 0.01, 0.03, 0.1, and 0.3 μg/ml. To the well of a control group, DMSO was dispensed at a final concentration of 0.1% (v/v). After four days of culturing, the activity of alkaline phosphatase (ALP) was measured in each group.
The measurement of ALP activity was performed as follows. That is, the medium in each well of the culture plates was completely removed. Each well was then washed by dispensing 100 μL of Dulbecco's phosphate buffer (obtained from GIBCO BRL Cat. No. 14190-144) and then removing it. A cell lysate solution containing 10 mM MgCl2 and 2% (v/v) TritonX-100 (Sigma) was prepared and dispensed at 50 μL/well, followed by stirring at room temperature for five minutes. An ALP substrate solution containing 50 mM diethanolamine (Wako pure chemical industries, Ltd., Cat. No. 099-03112) and 20 mM p-nitrophenyl phosphate (Wako pure chemical industries, Ltd., Cat. No. 147-02343) was prepared and dispensed at 50 μL/well, and the plates were left to stand at room temperature for 10 minutes. Subsequently, absorbance was measured by a microplate reader (Bio-Rad Laboratories, Inc.). Setting the measurement value of the control group of each plate at 100%, the increase (%) in alkaline phosphatase activity in the test compound-addition group was calculated, which was assessed as the degree of osteoblast differentiation.

female F344 rats = assay: Effect on bone density (oophorectomy or sham surgery, femur DXA); assay type: in vivo; conditions: 3 mg/kg, orally once a day, six days a week, six to eight weeks, female F344 rats after oophorectomy or sham surgery
Experimental: Eight to 12 week old female F344 rats were purchased from Charles River Laboratories and used in the following experiment. Rats were anesthetized with an intraperitoneal administration of 40 mg/kg of Somnopentyl (Kyoritsu Seiyaku Corporation), and then oophorectomy or sham surgery was performed. From the day after surgery, a suspension of the test compound in a 0.5% methyl cellulose solution (Wako pure chemical industries, Ltd. Cat. No. 133-14255) was orally administered once a day, six days a week. Six to eight weeks after administration, the rats were euthanized by removal of whole blood from the lower abdominal aorta under Somnopentyl anesthesia, and the left and right femur was excised.
After removal of soft tissues, the bone density of the femur thus excised was measured by a DXA apparatus, DCS-600R (Aloka Co., Ltd.). The bone density was assessed in the whole femur as well as in three equal sections of the whole femur, namely the proximal end, the shaft, and the distal end.

Structure (SMILES) | activity at 0.03 µg/mL [1] [%] | bone density of the femur (female F344 rats)
NC(=O)c1ccc2cncc(N3CCC(OCCO[C@H]4CCOC4)CC3)c2n1 [Example 4, 8-(4-{2-[(3S)-Tetrahydrofuran-3-yloxy]ethoxy}piperidin-1-yl)-1,6-naphthyridine-2-carboxamide] | ≥ 200 | significantly increased
NC(=O)c1ccc2cncc(N3CCN(c4ccccc4)CC3)c2c1 [Example 15, 4-(4-Phenylpiperazin-1-yl)isoquinoline-6-carboxamide] | ≥ 200 | significantly increased
NC(=O)c1ccc2cncc(N3CCCCC3)c2n1 [Example 12, 8-Piperidin-1-yl-1,6-naphthyridine-2-carboxamide] | ≥ 200 | significantly increased
NC(=O)c1ccc2cncc(N3CCC(OCCO[C@@H]4CCOC4)CC3)c2n1 [Example 3, 8-(4-{2-[(3R)-Tetrahydrofuran-3-yloxy]ethoxy}piperidin-1-yl)-1,6-naphthyridine-2-carboxamide] | ≥ 200 | significantly increased
Cl.NC(=O)c1ccc2cncc(N3CCC(OCCOC4CCOCC4)CC3)c2n1 [Example 7, 8-{4-[2-(Tetrahydro-2H-pyran-4-yloxy)ethoxy]piperidin-1-yl}-1,6-naphthyridine-2-carboxamide hydrochloride] | – | significantly increased
NC(=O)c1ccc2cncc(N3CCC(c4ccccc4)CC3)c2n1 [Example 83] | ≥ 200 | –
CN(C)C(=O)N1CCN(c2cncc3ccc(C(N)=O)cc23)CC1 [Example 99] | ≥ 200 | –
COCC1CCCN(c2cncc3ccc(C(N)=O)nc23)C1 (stereo not drawn) [Example 11, 8-[3-(Methoxymethyl)piperidin-1-yl]-1,6-naphthyridine-2-carboxamide] | ≥ 200 | –
NC(=O)c1ccc2cncc(N3CCC(O)(c4ccccc4)CC3)c2c1 [Example 23, 4-(4-Hydroxy-4-phenylpiperidin-1-yl)isoquinoline-6-carboxamide] | ≥ 200 | –
CN(C)C(=O)C1CCN(c2cncc3ccc(C(N)=O)cc23)CC1 [Example 74] | ≥ 200 | –
N#Cc1ccc(N2CCN(c3cncc4ccc(C(N)=O)cc34)CC2)cc1 [Example 62] | ≥ 200 | –
CC(=O)c1ccc(N2CCN(c3cncc4ccc(C(N)=O)cc34)CC2)cc1 [Example 50] | ≥ 200 | –
NC(=O)c1ccc2cncc(N3CCC(C4CCCCC4)CC3)c2c1 [Example 53] | ≥ 200 | –
Cc1ccc(N2CCN(c3cncc4ccc(C(N)=O)cc34)CC2)cc1 [Example 61] | ≥ 200 | –
CC(C)(O)C1CCN(c2cncc3ccc(C(N)=O)cc23)CC1 [Example 69] | ≥ 200 | –
COC[C@H]1CCCN(c2cncc3ccc(C(N)=O)cc23)C1 [Example 39] | ≥ 200 | –
CCOC1CCCN(c2cncc3ccc(C(N)=O)cc23)C1 (stereo not drawn) [Example 38] | ≥ 200 | –
NC(=O)c1ccc2cncc(N3CCCC3)c2c1 [Example 36] | ≥ 200 | –
NC(=O)c1ccc2cncc(N3CCC(OCC4CCCO4)CC3)c2c1 (stereo not drawn) [Example 68] | ≥ 200 | –
NC(=O)c1ccc2cncc(N3CCC(OCCS(=O)(=O)N4CCOCC4)CC3)c2c1 [Example 97] | ≥ 200 | –
NC(=O)c1ccc2cncc(N3CCC(CCOC4CCOCC4)CC3)c2c1 [Example 71] | ≥ 200 | –

Structure (SMILES) | activity at 0.03 µg/mL [1] [%] | bone density of the femur (female F344 rats)
CC1CCN(c2cncc3ccc(C(N)=O)cc23)CC1 [Example 47] | ≥ 200 | –
NC(=O)c1ccc2cncc(N3CCC(Oc4ccccc4)CC3)c2c1 [Example 64] | ≥ 200 | –
CN(CCOC1CCN(c2cncc3ccc(C(N)=O)nc23)CC1)S(C)(=O)=O [Example 9, 8-(4-{2-[Methyl(methylsulfonyl)amino]ethoxy}piperidin-1-yl)-1,6-naphthyridine-2-carboxamide] | ≥ 200 | –
NC(=O)c1ccc2cncc(N3CCC(OCCOC4CCCCO4)CC3)c2c1 (stereo not drawn) [Example 19, 4-{4-[2-(Tetrahydro-2H-pyran-2-yloxy)ethoxy]piperidin-1-yl}isoquinoline-6-carboxamide] | ≥ 200 | –
NC(=O)c1ccc2cncc(N3CCN(C(=O)c4ccccc4)CC3)c2c1 [Example 78] | ≥ 200 | –
CC(=O)N1CCN(c2cncc3ccc(C(N)=O)cc23)CC1 [Example 79] | ≥ 200 | –
CN(CCOC1CCN(c2cncc3ccc(C(N)=O)cc23)CC1)S(C)(=O)=O [Example 102] | ≥ 200 | –
Cc1ccn(-c2cncc3ccc(C(N)=O)cc23)c1 [Example 66] | ≥ 200 | –
NC(=O)c1ccc2cncc(N3CCC(COCCOC4CCOCC4)CC3)c2n1 [Example 110] | ≥ 200 | –
NC(=O)c1ccc2cncc(N3CCN(c4cccc(F)c4)CC3)c2c1 [Example 60] | ≥ 200 | –
COCC1CCN(c2cncc3ccc(C(N)=O)cc23)CC1 [Example 37] | ≥ 200 | –
CN(C)C(=O)CCC1CCN(c2cncc3ccc(C(N)=O)cc23)CC1 [Example 82] | ≥ 200 | –
NC(=O)c1ccc2cncc(N3CCC(OCC(=O)N4CCOCC4)CC3)c2n1 [Example 100] | ≥ 200 | –
COC[C@@H]1CCCN(c2cncc3ccc(C(N)=O)cc23)C1 [Example 40] | ≥ 200 | –
CC(=O)c1ccn(-c2cncc3ccc(C(N)=O)cc23)c1 [Example 48] | ≥ 200 | –
CC(C)(C)OC(=O)NCCOCC1CCCN(c2cncc3ccc(C(N)=O)cc23)C1 (stereo not drawn) [Example 21, Tert-butyl (2-{[1-(6-carbamoylisoquinolin-4-yl)piperidin-3-yl]methoxy}ethyl)carbamate] | ≥ 200 | –
NC(=O)c1ccc2cncc(N3CCC(OCCS(=O)(=O)N4CCOCC4)CC3)c2n1 [Example 92] | ≥ 200 | –
NC(=O)c1ccc2cncc(N3CCN(c4ccc(Cl)cc4)CC3)c2c1 [Example 49] | ≥ 200 | –
NC(=O)c1ccc2cncc(N3CCC(F)CC3)c2c1 [Example 45] | ≥ 200 | –
NC(=O)c1ccc2cncc(N3CCC(C(F)(F)F)CC3)c2c1 [Example 44] | ≥ 200 | –
